The text below walks through data of patent US20250295668A1, “METHODS FOR INDUCING COLANIC ACID BIOSYNTHESIS” (priority 2024, published 2025).

For data set [1], the target named is PBP1a (Escherichia coli, UniProt P02918). The following applies: E. coli, literature; cited from earlier work.
Data set [2] deals with C. elegans. Put plainly: C. elegans lifespan assay on antibiotic-treated E. coli. It is filed as in vivo, Caenorhabditis elegans. The procedure:
For longitudinal assays, E. coli Keio mutants were initially cultivated in M9 minimum medium at 37° C. for 16 hours. Subsequently, bacteria at stationary phase were reinoculated in fresh M9 medium with a low dose of cephaloridine at 37° C. for another 16 hours. A 100 μL aliquot of the bacteria culture was seeded onto each 6-cm NGM plate and maintained at 20° C. Fresh bacteria plates were prepared every other day for transfer to alive worms. Caenorhabditis elegans var. Bristol N2 strain was obtained from the Caenorhabditis Genome Center. The strain was maintained on standard nematode growth medium (NGM) agar plates seeded with corresponding bacteria at 20° C. Age synchronization of C. elegans was achieved by isolating eggs as previously described [PMID: 4858229]. Lifespan assays were performed as previously described [PMID: 25554789]. In brief, age-synchronized C. elegans at the L1 stage were seeded onto designated bacteria lawns. Fresh bacteria-containing plates were made every other day for live C. elegans transfer. Once reaching adulthood as Day 0, worms were transferred to new bacteria plates. Death events were scored upon each transfer. Bagged worms and vulva protruding worms were censored throughout the analysis. Each assay contained 80-100 animals with 30-40 animals per 6 cm plate.

The subject of data set [3] is E. coli. The following applies: previously reported, cited from earlier work.
Data set [4] in a line: Age-related metabolic dysfunction in mice, cephaloridine in drinking water. In kind it is in vivo. The conditions noted are these: oral 2 μg/mL. The procedure:
Methods: Co-housed 12-month-old […] mice were given MG1655 E. coli at 1×10^8 CFU/mL through distilled drinking water (100 mL) for 24 hours to maintain E. coli occupancy in the mouse gut microbiota. Subsequently, mice received 2 μg/mL cephaloridine through drinking water (100 mL) for 60 hours. […] This entire procedure was then repeated. Cephaloridine dosages were calculated as follows. Briefly, a typical mouse used in this study consumed 5-10 ml of water per day and weighed between 30-40 g. Using the 2 μg/mL concentration, a lower bound of 0.25 mg/kg (0.002 mg/mL×5 mL=0.04 kg) and a higher bound of 0.67 mg/kg (0.002 mg/mL×10 mL=0.03 kg) were identified.

In data set [5] the test system is MG1655 E. coli. Put plainly: Colanic acid production in MG1655 commensal E. coli. It is filed as cell-based. The following applies: MG1655, low-dose cephaloridine, 37° C. The method, then:
The desired bacterial strain was first inoculated and cultured in M9 minimum medium overnight at 37° C. to obtain the seeding culture. The OD 600 was measured, and the seeding bacteria were diluted to OD600=0.02 in M9 minimum medium for another 16 hours. After the incubation, bacterial cultures were collected in 50 mL tubes, spun down at 4,000 g at 4° C. for 30 min, filtered, and 25 mL of supernatant was collected per 50 ml conical tube. Ice-cold 100% ethanol (EtOH) was added to make a final 50% EtOH solution for precipitation, and the mixture was kept at 4° C. overnight. Once precipitation occurred, the liquid was carefully removed after centrifugation at 4,000 g at 4° C. for 50 min. The pellet was washed once with cold 80% EtOH and then air-dried in a hood. The pellet from every 50 mL culture was resuspended in 500 μL distilled H2O. The solution was sonicated for 60 minutes at 37° C., followed by centrifugation at 4000 g at 4° C. for 10 minutes. […] The fucose quantification assay was then carried out using a K-FUCOSE kit (Megazyme) according to the manufacturer's protocol.
MG1655, a human-derived commensal K12 strain, was treated with a low dose of cephaloridine at 37° C., which induced colanic acid production (FIG. 3A). […] The luminal content of mice ileum was harvested after 3 hours of cephaloridine administration and were imaged for fluorescence. […]

The conditions of data set [6]: PMID 9165537; cited from earlier work.

In brackets after ≈: the same amount, converted by molar mass. Several values for one entry are separate records, joined by “and”; a condition that tells them apart may be missing. Equal values may be shown once. Entries after “also recorded” stand apart in the source; their conditions may differ. Read-outs that look alike come from different tables or passages of the source.

Sequence of PBP1a (P02918 whole entry): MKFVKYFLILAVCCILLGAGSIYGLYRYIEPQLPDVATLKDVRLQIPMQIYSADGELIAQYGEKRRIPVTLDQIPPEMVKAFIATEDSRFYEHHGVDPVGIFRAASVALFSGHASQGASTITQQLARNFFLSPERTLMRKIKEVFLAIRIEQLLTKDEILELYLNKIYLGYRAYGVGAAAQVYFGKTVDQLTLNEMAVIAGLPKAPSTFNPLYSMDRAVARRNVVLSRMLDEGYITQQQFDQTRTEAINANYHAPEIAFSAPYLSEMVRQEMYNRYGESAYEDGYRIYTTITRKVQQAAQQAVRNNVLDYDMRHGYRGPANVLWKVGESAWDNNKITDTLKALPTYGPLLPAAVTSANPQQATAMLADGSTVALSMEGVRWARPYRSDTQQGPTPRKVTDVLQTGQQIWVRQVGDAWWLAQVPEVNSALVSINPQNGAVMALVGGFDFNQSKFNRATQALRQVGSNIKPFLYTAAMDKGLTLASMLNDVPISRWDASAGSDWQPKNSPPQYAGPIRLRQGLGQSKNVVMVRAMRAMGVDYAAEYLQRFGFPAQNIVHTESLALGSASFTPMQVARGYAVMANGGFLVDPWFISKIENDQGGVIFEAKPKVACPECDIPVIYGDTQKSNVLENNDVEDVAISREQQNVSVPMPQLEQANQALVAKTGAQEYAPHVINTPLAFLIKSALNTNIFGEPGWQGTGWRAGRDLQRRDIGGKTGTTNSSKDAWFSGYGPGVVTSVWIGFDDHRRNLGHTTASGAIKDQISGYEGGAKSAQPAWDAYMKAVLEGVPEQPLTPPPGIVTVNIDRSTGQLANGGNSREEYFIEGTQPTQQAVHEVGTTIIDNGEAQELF

A word on the MIC: it is the least concentration at which growth counts as inhibited. For `O=C(Cc1cccs1)N[C@@H]1C(=O)N2C(C(=O)[O-])=C(C[n+]3ccccc3)CS[C@H]12` [cephaloridine], the “binding to PBP1a” value in data set [1] is recorded as “primarily binds to PBP1a”. The “C. elegans lifespan extension vs vehicle” value in data set [2] (MG1655 E. coli treated with 1.8 μg/mL) was 13% and 13.3%. The C. elegans lifespan result in data set [2] (cephaloridine-treated rcsA deletion mutant E. coli) is reported as “failed to extend lifespan”. The C. elegans lifespan result in data set [2] (cephaloridine-treated rcsD deletion mutant E. coli) was “effectively promoted longevity”. Also, the “C. elegans lifespan extension vs vehicle” value in data set [2] (wildtype E. coli treated with 1.8 μg/mL) worked out at 14%. Besides, the MIC in data set [3] (PMID 380457) is 2 µg/mL (≈ 4.81 µM). Besides, the MIC in data set [3] (PMID 9371340) was 4 µg/mL (≈ 9.63 µM). Besides, the “increase in plasma insulin between 12 and 18 months of age vs controls” value in data set [4] (female mice) was “lower”. For the same compound, in data set [4] (male mice), the “age-related increase in LDL:HDL ratio” value is given as “suppressed”; the “plasma HDL” value is listed as “not affected”; the “plasma LDL between 12 and 18 months of age” value is listed as “remain nearly unchanged”. Moreover, the “colanic acid production increase” value in data set [5] stood at 3.2 fold. In data set [6], the “absorption after oral administration” value is on record as “poorly absorbed; also recorded: near-zero absorption” and the oral bioavailability result was “extremely low oral bioavailability”.
